Assay results reported in US9670242B2, “Tetracyclic anthraquinone derivatives” (Tianjin Hemay Bio-Tech Co., Ltd, priority 2012, dated 2017).

How the values were obtained:
[1] = test system: NCI-H460 cells; assay: NCI-H460 cell growth inhibition test (MTT assay); type: cell-based, human; conditions: NCI-460 cells (NCI-H460 in method), 72 h
Protocol: NCI-H460 Cell Growth Inhibition Test (MTT Assay)
(§1) II. Reagents and Consumable Materials
Culture medium: 90% RPMI1640+10% FBS (fetal calf serum); Pancreatin (0.25% (w/v) solution was formulated with PBS, 0.53 mM of EDTA was added in the formulation); PBS; 96-well culture plate.
(§2) 1. A plate (10 cm) of cells in logarithmic growth phase that were normally cultured was collected;
(§3) 2. The culture solution was sucked out. The plate was washed with 5 mL of PBS once or twice;
3. PBS was sucked out. 1.5 mL of 0.25% pancreatin was added to the plate to infiltrate the cells for 1 min;
4. The culture plate was placed in an incubator. Digestion was carried out for about 3 min at 37° C.;
(§4) 5. 3 mL of complete culture solution was added to the culture plate to stop the digestion. The cells were carefully scoured with micropipette (1 mL) to give a uniform cell suspension. The suspension was implanted into a 96-well cell culture disc by 2000 cells/100 μL per well. The culture plate was incubated overnight under 5% CO2 at 37° C. In day 2, 100 μL of culture solution comprising a compound was added in each well. The plate was further incubated for 72 h under 5% CO2 at 37° C.;
6. The culture solution was sucked out;
7. 100 μL of serum-free culture solution containing 0.5 mg/mL MTT was added in each well. The plate was incubated for 3 h;
8. The culture solution was carefully sucked out;
9. […]
10. OD values were determined at 490 nM. […]

[2] = test system: SK-Br-3 cells; assay: SK-Br-3 cell growth inhibition test (SRB assay); type: cell-based, human; conditions: 72 h
Protocol: SK-Br-3 Cell Growth Inhibition Test (SRB Assay)
as §1
Culture medium: 85% DMEM+15% FBS; pancreatin (0.25% (w/v) solution was formulated with PBS, 0.53 mM of EDTA was added in the formulation); PBS; 96-well culture plate.
as §2, §3
3. 1.5 mL of 0.25% pancreatin was added to the plate to infiltrate the cells;
4. The pancreatin was sucked out. The culture plate was placed in an incubator. Digestion was carried out for about 2 min at 37° C.;
as §4, with “5. 4” for “5. 3”, “uniform single” for “uniform”, “culture plate” for “culture disc”, “by 10000” for “by 2000”
6. The culture solution was sucked out. 100 uL of TCA fixed cells which were diluted to 10% were added to each well. The plate was kept in a refrigerator for 1 h at 4° C.
7. TCA stationary liquid was sucked out. […]
13. OD values were determined at […]. […]

## COc1cccc2c1C(=O)c1c(O)c3c(c(O)c1C2=O)CC(O)(C(=O)COC(=O)CCC(=O)O)CC3OC1CC(n2cccc2)C(O)C(C)O1 (centres unmarked) [Compound A, 3′-pyrrolyldoxorubicin-14-oxo-succinic acid monoester, reference compound]
[1]
  IC50: 21 nM
[2]
  IC50: 93 nM
